Reference: patent US20110256121A1, “METHODS AND KITS FOR DIAGNOSING OR MONITORING AUTOIMMUNE AND CHRONIC INFLAMMATORY DISEASES” (THE REGENTS OF THE UNIVERSITY OF MICHIGAN, priority 2008, published 2011)

How the values were obtained:
KIR2DL4 [1] = assay: KIR2DL4 expression on T cells by flow cytometry; assay type: cell-based, human; conditions: 5-azaC 72 h, p<0.001 for both
Method: T cell purification and culture. Peripheral blood mononuclear cells (PBMC) were isolated from healthy donors by density gradient centrifugation, stimulated for 18 hours with 1 μg/mlphytohemagglutinin (PHA) (Murex, Norcross, Ga.), then treated or not with 5 μm 5-azacytidine (5-azaC, Sigma, St. Louis, Mo.) for 72 hours as described (6). Total T cells, CD4^+ T cells or CD8′ T cells then were purified using the pan T cell isolation kit II or the CD4^+ and CD8^+ T cell isolation kit II from Miltenyi (Auburn, Calif.). T cells were typically >94% CD3^+ by flow cytometry. Jurkat cells (E6-1) were maintained in culture as described (11). This protocol was approved by the University of Michigan Institutional Review Board.
Flow Cytometric Analysis. The following monoclonal antibodies were used: CYC-anti-CD3, FITC-anti-CD8, CYC-anti-CD4, FITC-anti-CD28, CYC-mouse IgG1 and FITC-mouse-IgG1 (all from BD PharMingen, San Diego, Calif.). Anti-CD158b1/b2, j-PE (GL183, reactive with KIR 2DL2/2DL3/2DS2) was obtained from Beckman Coulter Immunotech (Buckinghamshire, UK), anti-CD158d-PE (anti-KIR2DL4) from R&D Systems (Minneapolis, Minn.), and PE-mouse-IgG2A from Abcam (Cambridge Mass.). Cell staining and fixation were performed as described (2; 6), and cells analyzed using a FACSCalibur flow cytometer (BD Biosciences, Franklin Lakes, N.J.).

KIR2DL4 [2] = assay: Cell stimulation with immobilized anti-KIR2DL4 and IFN-γ quantitation (Example 15); assay type: cell-based, human; conditions: without anti-KIR2DL4 crosslinking, p<0.001
Method: Cell stimulation and IFN-γ quantitation. Anti-human KIR2DL4 (R&D systems) or isotype matched control (10 μg/ml in PBS) were added to 24 well plates, incubated 6 hours 37° C., then the wells were washed twice with PBS to remove unbound antibody. 2×10^5 T cells were then added to the coated wells in RPMI 1640 supplemented with 10% FBS and cultured for 20 hours. The supernatant was then recovered and IFN-γ levels measured using a human IFN-γ ELISA kit (R&D Systems).
KIR function in 5-azaC treated T cells. It was determined if 5-azaC induced KIR2DL4 stimulates IFN-γ in T cells. PBMC were stimulated with PHA for 18 hours, treated with 5-azaC, then 72 hours later CD4+ and CD8+ cells were isolated, stimulated for 6 hours with immobilized anti-KIR2DL4 or an isotype matched antibody, then IFN-γ was measured in the supernatant by ELISA.

KIR3DL1 = target: T1, KIR3DL1 (Homo sapiens, UniProt P43629); assay: Macrophage killing assay with 5-azaC treated T cells, 51Cr release; assay type: cell-based; conditions: 18 hrs
T1 construct: endogenous in cells; host or cells: primary T cells of healthy donors, PHA-stimulated and 5-azaC treated, with autologous monocytes/macrophages
T1 sequence (P43629 22-444): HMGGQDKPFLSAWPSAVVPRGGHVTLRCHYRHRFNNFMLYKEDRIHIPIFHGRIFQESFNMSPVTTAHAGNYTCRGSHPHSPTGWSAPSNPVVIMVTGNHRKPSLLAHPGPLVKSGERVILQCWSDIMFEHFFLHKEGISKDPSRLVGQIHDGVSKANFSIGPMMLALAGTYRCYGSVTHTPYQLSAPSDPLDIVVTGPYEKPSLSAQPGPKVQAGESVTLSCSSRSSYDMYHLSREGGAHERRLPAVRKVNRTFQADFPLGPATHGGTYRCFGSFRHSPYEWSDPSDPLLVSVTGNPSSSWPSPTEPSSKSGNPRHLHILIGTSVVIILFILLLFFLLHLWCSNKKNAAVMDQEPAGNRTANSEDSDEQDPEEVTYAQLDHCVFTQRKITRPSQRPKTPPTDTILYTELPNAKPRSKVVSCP

Nc1ncn([C@@H]2O[C@H](CO)[C@@H](O)[C@H]2O)c(=O)n1 [5-azaC, 5-azacytidine]
KIR2DL4 expression on CD4+ and CD8+ T cells (KIR2DL4 [1]): induces KIR2DL4 expression on CD4+ and CD8+ T cells | IFN-γ secretion by 5-azaC treated CD4+ and CD8+ T cells (KIR2DL4 [2]): secrete significant (p<0.001) amounts of IFN-γ | killing of autologous Mo by demethylated (5-azaC treated) T cells (KIR3DL1): spontaneously kill autologous Mo
